From ChEMBL document CHEMBL5316313, “Discovery of Novel 3-Phenylpiperidine Derivatives Targeting the β-Catenin/B-Cell Lymphoma 9 Interaction as a Single Agent and in Combination with the Anti-PD-1 Antibody for the Treatment of Colorectal Cancer” (J Med Chem, 2023)
The source made the active and inactive calls. No cut-off for these calls is given here.

Assays:
HEK293 = assay: Induction of apoptosis in Wnt-independent human HEK293 cells assessed as late apoptotic cells at 20 uM incubated for 24 hrs by Annexin V-Alexa Fluor 647/PI staining based flow cytomtery (Rvb=10.5%); format: functional
HCT-116 [1] = assay: Cytotoxicity against Wnt-dependent human HCT-116 cells assessed as reduction in cell viability at 10 to 20 uM by LDH release assay; format: toxicity, cell-based; details: hct-116, 20 µM, dose 10-20 µM
HCT-116 [2] = assay: Induction of apoptosis in Wnt-dependent human HCT-116 cells assessed as viable cells at 10 uM incubated for 24 hrs by Annexin V-Alexa Fluor 647/PI staining based flow cytomtery (Rvb=69.5%); format: functional; details: read-out: Activity
A549 = assay: Antiproliferative activity against Wnt-independent human A549 cells assessed as cell growth inhibition at 40 uM incubated for 48 hrs by CellTiter-Glo assay; format: functional, cell-based
CT26 [3] = assay: Synergistic antitumor activity in mouse CT26 cells xenografted in BALB/c mouse assessed as increase in IFNG mRNA expression level in tumor at 30 mg/kg, ip QD in presence of anti-PD-1 antibody cotreatment at 10 mg/kg,ip BIW by qRT-PCR analysis; format: functional, organism-based
[4] = Toxicity in BALB/c mouse xenografted with mouse CT26 cells assessed as pathological changes in bone marrow at 30 mg/kg, ip QD by hematoxylin and eosin staining based microscopic analysis; format: organism-based; details: in vivo
CT26 [5] = assay: Induction of apoptosis in Wnt-dependent mouse CT26 cells assessed as viable cells at 10 uM incubated for 24 hrs by Annexin V-Alexa Fluor 647/PI staining based flow cytomtery (Rvb=70.7%); format: functional; details: read-out: Activity
[6] = Half life in Sprague-Dawley rat at 21 mg/kg, ip and measured upto 24 hrs by LC-MS analysis; format: ADME, organism-based; details: in vivo
[7] = AUC (0 to infinity) in Sprague-Dawley rat at 21 mg/kg, ip and measured upto 24 hrs by LC-MS analysis; format: ADME, organism-based; set-up: time < 24 hrs, dose 21 mg/kg, route ip; details: in vivo
[8] = target: T1, beta-catenin-B-cell lymphoma 9 protein complex (Homo sapiens, UniProt P35222); assay: Inhibition of beta-catenin/BCL9 protein-protein interaction in Wnt-independent human RKO cells assessed as reduction in Axin2 expression level by qRT-PCR assay; format: cell-based
T1 sequence (P35222 whole entry): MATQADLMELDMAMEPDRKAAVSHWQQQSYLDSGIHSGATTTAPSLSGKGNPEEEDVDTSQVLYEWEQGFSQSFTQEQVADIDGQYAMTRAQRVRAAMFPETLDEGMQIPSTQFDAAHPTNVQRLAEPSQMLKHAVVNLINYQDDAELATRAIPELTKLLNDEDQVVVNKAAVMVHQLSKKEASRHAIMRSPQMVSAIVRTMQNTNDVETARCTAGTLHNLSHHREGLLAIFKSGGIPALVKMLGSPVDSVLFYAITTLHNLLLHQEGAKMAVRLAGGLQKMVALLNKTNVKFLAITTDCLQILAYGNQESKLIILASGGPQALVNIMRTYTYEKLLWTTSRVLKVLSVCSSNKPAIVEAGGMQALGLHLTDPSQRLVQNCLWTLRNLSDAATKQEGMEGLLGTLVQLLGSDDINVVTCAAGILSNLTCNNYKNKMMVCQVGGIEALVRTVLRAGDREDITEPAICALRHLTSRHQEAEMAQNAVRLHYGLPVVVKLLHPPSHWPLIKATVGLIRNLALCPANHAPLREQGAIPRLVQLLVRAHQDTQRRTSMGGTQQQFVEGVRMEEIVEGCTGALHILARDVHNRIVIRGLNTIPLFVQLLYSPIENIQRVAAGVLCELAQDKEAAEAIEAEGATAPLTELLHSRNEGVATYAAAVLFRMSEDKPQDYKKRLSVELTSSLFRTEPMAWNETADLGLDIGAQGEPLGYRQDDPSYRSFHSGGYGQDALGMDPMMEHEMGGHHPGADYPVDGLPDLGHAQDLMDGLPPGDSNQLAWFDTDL
T1 sequence (O00512 whole entry): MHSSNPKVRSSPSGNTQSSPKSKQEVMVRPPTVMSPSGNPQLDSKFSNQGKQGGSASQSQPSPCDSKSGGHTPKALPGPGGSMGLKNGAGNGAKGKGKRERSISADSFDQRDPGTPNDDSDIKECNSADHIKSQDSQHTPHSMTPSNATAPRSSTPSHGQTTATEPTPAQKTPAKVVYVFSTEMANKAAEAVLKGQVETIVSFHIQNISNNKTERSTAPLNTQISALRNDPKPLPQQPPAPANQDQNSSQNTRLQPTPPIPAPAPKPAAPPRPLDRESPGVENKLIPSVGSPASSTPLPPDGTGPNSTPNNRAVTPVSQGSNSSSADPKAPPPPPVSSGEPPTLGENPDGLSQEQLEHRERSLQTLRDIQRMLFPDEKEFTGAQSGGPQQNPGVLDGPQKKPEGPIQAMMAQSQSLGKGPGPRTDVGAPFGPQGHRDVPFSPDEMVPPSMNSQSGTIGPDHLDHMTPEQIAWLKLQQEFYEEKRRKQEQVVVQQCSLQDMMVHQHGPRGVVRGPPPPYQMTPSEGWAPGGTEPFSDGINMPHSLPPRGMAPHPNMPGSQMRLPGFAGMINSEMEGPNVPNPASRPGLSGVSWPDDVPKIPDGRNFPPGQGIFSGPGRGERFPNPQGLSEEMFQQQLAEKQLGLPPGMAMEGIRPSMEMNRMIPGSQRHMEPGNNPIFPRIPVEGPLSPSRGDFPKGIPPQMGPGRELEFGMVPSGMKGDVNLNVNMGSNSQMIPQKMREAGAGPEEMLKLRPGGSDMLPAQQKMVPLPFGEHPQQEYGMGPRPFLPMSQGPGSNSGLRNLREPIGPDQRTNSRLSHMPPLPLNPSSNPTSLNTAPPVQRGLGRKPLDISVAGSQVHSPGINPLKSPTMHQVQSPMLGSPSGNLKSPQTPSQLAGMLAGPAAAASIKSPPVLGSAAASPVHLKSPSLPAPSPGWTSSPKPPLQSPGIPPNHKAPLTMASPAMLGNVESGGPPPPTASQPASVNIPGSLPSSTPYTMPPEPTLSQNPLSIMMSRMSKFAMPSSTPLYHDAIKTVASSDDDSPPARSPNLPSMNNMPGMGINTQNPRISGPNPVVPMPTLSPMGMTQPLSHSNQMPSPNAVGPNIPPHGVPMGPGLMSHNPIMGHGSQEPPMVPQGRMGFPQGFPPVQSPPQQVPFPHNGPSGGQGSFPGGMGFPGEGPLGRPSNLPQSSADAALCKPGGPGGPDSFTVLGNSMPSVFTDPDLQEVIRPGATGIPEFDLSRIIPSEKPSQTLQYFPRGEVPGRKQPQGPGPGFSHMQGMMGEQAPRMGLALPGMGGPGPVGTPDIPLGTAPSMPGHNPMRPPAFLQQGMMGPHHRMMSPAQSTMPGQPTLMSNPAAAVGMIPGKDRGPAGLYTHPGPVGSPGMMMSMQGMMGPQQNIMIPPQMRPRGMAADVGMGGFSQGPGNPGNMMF

[9] = target: T1, beta-catenin-B-cell lymphoma 9 protein complex; assay: Inhibition of beta-catenin/BCL9 protein-protein interaction in Wnt-dependent human SW480 cells assessed as reduction in Axin2 expression level by qRT-PCR assay; format: cell-based

Compound | Activity (HEK293) [%] | Activity (HCT-116 [1]) | viability at 10 µM (HCT-116 [2]) [%] | Activity (A549) | Activity (CT26 [3]) | Activity [4] | viability at 10 µM (CT26 [5]) [%] | half-life [6] [h] | AUC(0-inf) [7] [ng·h/mL] | IC50 [8] [µM] | IC50 [9] [µM]
CC(C)c1ccc(-c2cccc(S(=O)(=O)N3CCCC(c4cccc(OC(C)(C)C(=O)NS(=O)(=O)c5ccc(C(F)(F)F)cc5)c4)C3)c2)cc1 (stereo unspecified) | 16.6 | Non-Toxic | 59.8 | inactive | Active | Non-Toxic | 43.8 | 1.15 | 17400 |  | 
O=C1[C@H](Cc2ccc(O)cc2)N2C(=O)CCN(C(=O)NCc3ccccc3)[C@H]2CN1Cc1cccc2ccccc12 |  |  |  |  |  |  |  |  |  | 26.3 | 10.6
